Experimental data: patent US20190117770A1, “USES OF IMMUNOCONJUGATES TARGETING CD138” (Biotest AG, priority 2011, published 2019)
Values joined by “and” are separate entries in the source; they are usually repeats but may differ in a detail not shown here. Equal entries are not always repeated. “Also recorded” adds a separate entry of the source. Where two headings read alike, the source gives them in different places.

Columns and labels:
Jurkat = experiment: Sensitivity of cell lines towards BT062; type: cell-based; settings: T cell lymphoma
[1] = Plasma level of BT062 (PK ELISA), repeated multiple dose; type: in vivo, human
Experimental: Theoretical Cmax was Calculated According to the Following Assumed Parameters: […]
The same evaluation was performed during treatment cycle 4.
The wells of a microtiter plate are first coated with anti-maytansinoid (anti-DM4) antibody overnight at 2-8° C. and after blocking with assay buffer (0.5% BSA/TBS) incubated on the next day with plasma samples. These are diluted beforehand at least 1:100 in assay buffer. […] After incubation, unbound material is removed by washing. […] Unbound secondary antibody is removed by another washing step. After this, TMB substrate solution is pipetted into all the wells. […] The color reaction is ended using a stop solution, which causes the color to change from blue to yellow. The final measurement is carried out with a photometer at a wavelength of 450 nm.
The relationship between concentration and optical density is evaluated using Magellan V6.6 software.

[2] = system: MOLP 8 human myeloma cells
Description: Female SCID mice were subcutaneously inoculated with MOLP 8 human myeloma cells. […] A control group of animals received phosphate buffered saline (PBS) using the same schedule and route of administration. Tumor growth was monitored by measuring tumor size and calculated with the formula length×width×height×1/2, determined on days 10, 14, 18 and 21.
FTV: Fractional tumor volume=mean tumor volume (test)/mean tumor volume (control)

[3] = system: plasma cell myeloma cell line L363; type: in vivo, NOD/SCID mice; settings: 4 mg/kg BT062 alone, once weekly
Experimental: In this model, a highly aggressive CD138 expressing plasma cell myeloma cell line L363 was subcutaneously implanted into NOD/SCID mice. Treatment started when tumors reached a size of approx. 100 mm^3. […] Tumor size was measured once weekly.

primary pancreatic tumor = experiment: Example 9 xenograft (FIG. 38); type: in vivo, NMRI (nude) mice; settings: 4 and 8 mg/kg once weekly; re-growth in treatment free period
Description: The results are shown in terms of the effect on the mean relative tumor volume.

[4] = system: relapsed or relapsed refractory multiple myeloma
Experimental: (§1) Initially, the response to treatment was evaluated at day 1 of treatment cycles 1-3 by M-protein quantification using immunoelectrophoresis (IEP) and immunofixation electrophoresis (IFE) from serum and 24-hour urine collection. […] A general quantitative immunoglobulin assessment was done together with M-protein quantification.
(§2) Serum samples were used to perform FLC assays to examine multiple myeloma subjects with no detectable M-protein (nonsecretory/oligosecretory myeloma) and to allow for detection of early response to treatment. Therefore serum FLC assays were performed on day 1, 2, 3, and 8 of treatment cycle 1, on day 2, 3, 8 and 15 of cycle 4, as well as on day 1, 8 and 15 of all other treatment cycles. M-protein and FLC were be analyzed at the screening and at the close-out visit. Evaluations at day 1 of cycle 1 served as baseline values.

[5] = system: relapsed/refractory multiple myeloma; experiment: Human trial, repeated multiple dose regimen (days 1, 8, 15)
Description: This includes, e.g., in alternating 2 and 3 day intervals, in 4 day intervals, in progressive increasing intervals such as on day 1, 3, 6, 10, 15. […] Such a treatment cycle, including a resting period, is also referred to herein as “full” or “complete” treatment cycle. A treatment free period describes the time during which no treatment is given. Thus, in the above example, the treatment free period would start at day 16. At the beginning of the resting period, no immunoconjugate is administered to the patient.
Generally, all toxicities of at least grade 3 are defined as DLT. Further study specific DLT criteria which can be employed are listed below: Nonhematological: • Alopecia, of any grade, is not considered a DLT • Grade 3-4 nausea and vomiting lasting longer than 3 days despite optimal antiemetic medication.^a • Grade 3-4 diarrhea lasting longer than 3 days despite optimal antidiarrheal medication.^a a. Optimal antidiarrheal and antiemetic treatment were determined by each investigator.
These DLTs may occur in a first or a subsequent treatment cycle. […] Preferably DLTs in the first cycle are considered.
as §1, §2

[6] = repeated single doses of 160 mg/m^2 (FIG. 28)

Substance: BT062
- IC50 (Jurkat): 39 nM
- % of theoretical Cmax, Mean (%) ([1]; 40 mg/m^2 weekly): 33%
- Mean conc. missing to theor. Cmax per Cycle ([1]; 40 mg/m^2 weekly, table rows = cycles C1 to C4): 19.5
- % of theoretical Cmax, Mean (%) ([1]; 50 mg/m^2 weekly): 33%
- Mean conc. missing to theor. Cmax per Cycle ([1]; 50 mg/m^2 weekly, table rows = cycles C1 to C4): 23.3
- % of theoretical Cmax, Mean (%) ([1]; 65 mg/m^2 weekly): 60%
- % of theoretical Cmax ([1]; 65 mg/m^2 weekly, cycle/day C1 D1 to C3 D15): 43% and 63% and 72% and 52% and 61% and 71% and 73%
- Mean conc. missing to theor. Cmax per Cycle ([1]; 65 mg/m^2 weekly, table rows = cycles C1 to C3): 15.3
- Plasma level/Mean ([1]; 80 mg/m^2, 2 hr after completion of administration on days 0, 7, 14): 22910 ng/mL
- % of theoretical Cmax ([1]; 80 mg/m^2 weekly, cycle/day C1 D1 to C3 D15): 42% and 45% and 50% and 43% and 39% and 53% and 41%
- Mean conc. missing to theor. Cmax per Cycle ([1]; 80 mg/m^2 weekly, table rows = cycles C1 to C3): 30.3
- % of theoretical Cmax, Mean (%) ([1]; 100 mg/m^2 weekly): 108%
- % of theoretical Cmax, Mean (%) ([1]; 120 mg/m^2 weekly): 69%
- % of theoretical Cmax ([1]; 120 mg/m^2 weekly, cycle/day C1 D1 to C2 D15): 69% and 74% and 79% and 62% and 67%
- actual Cmax as % of theoretical Cmax ([1]; 3×50 mg/m^2 on days 1, 8, 15): < 50%
- Regressions Complete ([2]; BT062 100 ug/kg): 0/6
- Regressions Partial ([2]; BT062 100 ug/kg): 0/6
- Result ([2]; BT062 100 ug/kg): Active
- T/C (%) (DAY 17) ([2]; BT062 100 ug/kg): 35%
- Tumor free survivors day 77 ([2]; BT062 100 ug/kg): 0/6
- Regressions Complete ([2]; BT062 200 ug/kg): 0/6
- Regressions Partial ([2]; BT062 200 ug/kg): 0/6
- Result ([2]; BT062 200 ug/kg): Active
- T/C (%) (DAY 17) ([2]; BT062 200 ug/kg): 14%
- Tumor free survivors day 77 ([2]; BT062 200 ug/kg): 0/6
- Regressions Complete ([2]; BT062 400 ug/kg): 1/6
- Regressions Partial ([2]; BT062 400 ug/kg): 4/6
- Result ([2]; BT062 400 ug/kg): highly active (A Log10 cell kill of higher than 2.8)
- T/C (%) (DAY 17) ([2]; BT062 400 ug/kg): 9%
- Tumor free survivors day 77 ([2]; BT062 400 ug/kg): 0/6
- tumor growth [3]: active in reducing the tumor growth
- tumor response (primary pancreatic tumor): complete remission
- treatment cycles of 21 days without disease progression ([4]; 20 mg/m^2, one patient): 10 cycles and Diseases progression after Cycle 10 cycles
- response (urine M-protein criteria) ([4]; 20 mg/m^2, after 8th treatment): M-Protein criteria for Minor Response reached after 8th
- Serum M-Protein ([4]; 40 mg/m^2, after 1st treatment): Serum M-Protein decreased after 1st treatment and stabilized
- response (FLC criteria) ([4]; 160 mg/m^2, after 2nd, 3rd and 4th administration (FIG. 26)): partial response; also recorded: FLC criteria for Partial Response were reached very early
- FLC levels reduced vs baseline ([4]; 160 mg/m^2, after 2nd, 3rd and 4th treatment): > 50%
- FLC levels reduced vs baseline ([4]; 160 mg/m^2, during 1st cycle): ~40%
- toxicity in the mucosa ([4]; 200 mg/m^2 dose group): DLTs
- patients out of 32 with diminished disease progression (at least a fourth treatment cycle) ([4]; all dose levels): At least 12
- MTD ([4]; human, in vivo): 160 mg/m^2
- decrease of urine M-protein ([4]; repeated single dosages, e.g. 20, 40, 80 and 120 mg/m^2): more than 50%
- MAD ([4]; repeated single dose): 200 mg/m^2
- toxicity towards non-cancer cells expressing CD138 ([4]; repeated single dose up to 120 mg/m^2): no dose limiting toxicity
- eye toxicity ([4]; repeated single dose, not qualifying for DLT): Serious adverse events
- M-protein levels reduced by [4, 6]: 25%
- progression free survival [4, 6]: about 22 months
- Tolerability ([4]; single dose every three weeks, 200 mg/m^2): DLTs
- dose limiting toxicity (DLT) dose ([4]; single dose once in 21 day cycle): 200 mg/m^2
- DLTs ([5]; 40 mg/m^2 weekly, 14 administrations): no DLTs
- response ([5]; 80 mg/m^2 weekly, Patient 12): partial response
- progression free survival ([5]; 100 mg/m^2 weekly, patient 15 (FIG. 23)): more than 3 months
- response ([5]; 120 mg/m^2 weekly, patient 19 (FIG. 24)): unconfirmed minor response
- patients displaying DLT ([5]; 140 mg/m^2 weekly): 1 out of 6
- patients displaying DLTs ([5]; 160 mg/m^2 weekly): two out of the four and 2 out of 4
- response ([5]; 160 mg/m^2 weekly, patient 31): minor response
- M-protein decrease ([5]; 160 mg/m^2 weekly, patient 31 (FIG. 25)): more than 25%
- disease status ([5]; 3 × 50 mg/m^2, over six cycles (Patient 6)): no disease progression; also recorded: At least stable disease could be achieved
- serum FLC level ([5]; 3 × 65 mg/m^2, after a single treatment cycle (FIG. 21)): A strong decrease of the serum FLC level
- Tolerability ([5]; 3 × 80 mg/m^2, aggregate 240 mg/m^2 in three weeks): well tolerated
- reduction of urine M protein ([5]; 3 × 120 mg/m^2, after 3rd, 7th and 10th cycle): 50% achieved after 3rd, 7th and 10th cycle
- patients with progression free survival of at least 168 days ([5]; FIG. 18): four
- patients with progression free survival of at least 300 days ([5]; FIG. 18): two
- treatment without disease progression ([5]; Patient 8 (FIG. 21)): 168 days
- patients (out of 32) with progression free survival of at least 3 months ([5]; all dose levels (FIG. 18)): 14
- DLT (palmar-plantar erythrodysaethesia syndrome), patients ([5]; at 420 (3 × 140 mg/m^2), out of six): toxicities (up to now), one
- MAD ([5]; days 1, 8, 15): 160 mg/m^2
- DLTs ([5]; three 21 day cycles of 3×100 mg/m^2): No DLTs
- DLTs ([5]; three 21 day cycles of 3×120 mg/m^2): No DLTs
